Test results taken from ChEMBL document CHEMBL4138123, “Design, synthesis and biological evaluation of novel pyrazolochalcones as potential modulators of PI3K/Akt/mTOR pathway and inducers of apoptosis in breast cancer cells” (Eur J Med Chem, 2017).

How the values were obtained:
Type in all cases: functional
[1] = tested on: HT-29; experiment: Cytotoxicity against human HT-29 cells assessed as growth inhibition after 48 hrs by sulforhodamine B assay; conditions: HT-29, 48 h
[2] = tested on: NCI/ADR-RES; experiment: Cytotoxicity against human NCI/ADR-RES cells assessed as cell growth at 10 uM after 48 hrs by sulforhodamine B assay relative to control; conditions: read-out: Activity
[3] = tested on: MDA-MB-468; experiment: Cytotoxicity against human MDA-MB-468 cells assessed as cell growth at 100 uM after 48 hrs by sulforhodamine B assay relative to control; conditions: MDA-MB-468, 48 h, read-out: Activity
[4] = tested on: SF-268; experiment: Cytotoxicity against human SF268 cells assessed as cell growth at 1 uM after 48 hrs by sulforhodamine B assay relative to control; conditions: SF-268, 48 h, read-out: Activity
[5] = tested on: K562; experiment: Cytotoxicity against human K562 cells assessed as growth inhibition after 48 hrs by sulforhodamine B assay; conditions: K562, 48 h
[6] = tested on: HOP-62; experiment: Cytotoxicity against human HOP62 cells assessed as cell growth at 100 uM after 48 hrs by sulforhodamine B assay relative to control; conditions: HOP-62, 48 h, read-out: Activity
[7] = tested on: Hs-578T; experiment: Cytotoxicity against human Hs 578T cells assessed as cell growth at 0.1 uM after 48 hrs by sulforhodamine B assay relative to control; conditions: read-out: Activity
[8] = tested on: M14; experiment: Cytotoxicity against human M14 cells assessed as cell growth at 1 uM after 48 hrs by sulforhodamine B assay relative to control; conditions: M14, 48 h, read-out: Activity
[9] = tested on: MDA-MB-231; experiment: Cytotoxicity against human MDA-MB-231 cells assessed as growth inhibition after 48 hrs by sulforhodamine B assay; conditions: MDA-MB-231, 48 h
[10] = tested on: OVCAR-8; experiment: Cytotoxicity against human OVCAR8 cells assessed as cell growth at 0.1 uM after 48 hrs by sulforhodamine B assay relative to control; conditions: OVCAR-8, 48 h, read-out: Activity
[11] = tested on: HT-29; experiment: Cytotoxicity against human HT-29 cells assessed as cell growth at 0.01 uM after 48 hrs by sulforhodamine B assay relative to control; conditions: HT-29, 48 h, read-out: Activity
[12] = tested on: MDA-MB-468; experiment: Cytotoxicity against human MDA-MB-468 cells assessed as cell growth at 0.01 uM after 48 hrs by sulforhodamine B assay relative to control; conditions: MDA-MB-468, 48 h, read-out: Activity
[13] = tested on: HCC 2998; experiment: Cytotoxicity against human HCC2998 cells assessed as cell growth at 100 uM after 48 hrs by sulforhodamine B assay relative to control; conditions: HCC 2998, 48 h, read-out: Activity
[14] = tested on: SK-MEL-5; experiment: Cytotoxicity against human SK-MEL-5 cells assessed as growth inhibition after 48 hrs by sulforhodamine B assay; conditions: SK-MEL-5, 48 h
[15] = tested on: UACC-62; experiment: Cytotoxicity against human UACC62 cells assessed as cell growth at 1 uM after 48 hrs by sulforhodamine B assay relative to control; conditions: UACC-62, 48 h, read-out: Activity
[16] = tested on: MDA-MB-435; experiment: Cytotoxicity against human MDA-MB-435 cells assessed as cell growth at 100 uM after 48 hrs by sulforhodamine B assay relative to control; conditions: MDA-MB-435, 48 h, read-out: Activity
[17] = tested on: SF-539; experiment: Cytotoxicity against human SF539 cells assessed as cell growth at 1 uM after 48 hrs by sulforhodamine B assay relative to control; conditions: SF-539, 48 h, read-out: Activity
[18] = tested on: Malme-3M; experiment: Cytotoxicity against human MALME-3M cells assessed as cell growth at 1 uM after 48 hrs by sulforhodamine B assay relative to control; conditions: read-out: Activity
[19] = tested on: MDA-MB-231; experiment: Cytotoxicity against human MDA-MB-231 cells assessed as cell growth at 10 uM after 48 hrs by sulforhodamine B assay relative to control; conditions: MDA-MB-231, 48 h, read-out: Activity
[20] = tested on: SF-268; experiment: Cytotoxicity against human SF268 cells assessed as cell growth at 10 uM after 48 hrs by sulforhodamine B assay relative to control; conditions: SF-268, 48 h, read-out: Activity
[21] = tested on: NCI-H522; experiment: Cytotoxicity against human NCI-H522 cells assessed as cell growth at 1 uM after 48 hrs by sulforhodamine B assay relative to control; conditions: NCI-H522, 48 h, read-out: Activity
[22] = tested on: HOP-62; experiment: Cytotoxicity against human HOP62 cells assessed as cell growth at 0.1 uM after 48 hrs by sulforhodamine B assay relative to control; conditions: HOP-62, 48 h, read-out: Activity
[23] = tested on: HL-60(TB); experiment: Cytotoxicity against human HL-60(TB) cells assessed as cell growth at 1 uM after 48 hrs by sulforhodamine B assay relative to control; conditions: HL-60, 48 h, read-out: Activity
[24] = tested on: UACC-62; experiment: Cytotoxicity against human UACC62 cells assessed as cell growth at 10 uM after 48 hrs by sulforhodamine B assay relative to control; conditions: UACC-62, 48 h, read-out: Activity
[25] = tested on: SW-620; experiment: Cytotoxicity against human SW620 cells assessed as cell growth at 1 uM after 48 hrs by sulforhodamine B assay relative to control; conditions: SW-620, 48 h, read-out: Activity
[26] = tested on: OVCAR-4; experiment: Cytotoxicity against human OVCAR4 cells assessed as cell growth at 10 uM after 48 hrs by sulforhodamine B assay relative to control; conditions: OVCAR-4, 48 h, read-out: Activity
[27] = tested on: DU-145; experiment: Cytotoxicity against human DU145 cells assessed as cell growth at 0.1 uM after 48 hrs by sulforhodamine B assay relative to control; conditions: DU-145, 48 h, read-out: Activity
[28] = tested on: MDA-MB-231; experiment: Cytotoxicity against human MDA-MB-231 cells assessed as cell growth at 0.1 uM after 48 hrs by sulforhodamine B assay relative to control; conditions: MDA-MB-231, 48 h, read-out: Activity
[29] = tested on: A549; experiment: Cytotoxicity against human A549/ATCC cells assessed as cell growth at 10 uM after 48 hrs by sulforhodamine B assay relative to control; conditions: A549, 48 h, read-out: Activity
[30] = tested on: SF-268; experiment: Cytotoxicity against human SF268 cells assessed as cell growth at 100 uM after 48 hrs by sulforhodamine B assay relative to control; conditions: SF-268, 48 h, read-out: Activity
[31] = tested on: RPMI-8226; experiment: Cytotoxicity against human RPMI8226 cells assessed as cell growth at 0.1 uM after 48 hrs by sulforhodamine B assay relative to control; conditions: RPMI-8226, 48 h, read-out: Activity
[32] = tested on: SK-MEL-28; experiment: Cytotoxicity against human SK-MEL-28 cells assessed as cell growth at 0.01 uM after 48 hrs by sulforhodamine B assay relative to control; conditions: SK-MEL-28, 48 h, read-out: Activity
[33] = tested on: SF-539; experiment: Cytotoxicity against human SF539 cells assessed as cell growth at 10 uM after 48 hrs by sulforhodamine B assay relative to control; conditions: SF-539, 48 h, read-out: Activity
[34] = tested on: RXF 393; experiment: Cytotoxicity against human RXF393 cells assessed as cell growth at 0.01 uM after 48 hrs by sulforhodamine B assay relative to control; conditions: RXF 393, 48 h, read-out: Activity
[35] = tested on: MDA-MB-231; experiment: Cytotoxicity against human MDA-MB-231 cells assessed as cell growth at 100 uM after 48 hrs by sulforhodamine B assay relative to control; conditions: MDA-MB-231, 48 h, read-out: Activity
[36] = tested on: ACHN; experiment: Cytotoxicity against human ACHN cells assessed as cell growth at 0.01 uM after 48 hrs by sulforhodamine B assay relative to control; conditions: read-out: Activity

COc1ccc(-c2cc(/C=C/C(=O)c3ccc(OC)c(OC)c3)[nH]n2)cc1
GI50 [1]: 1.55 µM
LC50 [1]: 7.68 µM
TGI [1]: 3.45 µM
growth at 10 µM [2]: 15%
growth at 100 µM [3]: -76%
growth at 1 µM [4]: 86%
GI50 [5]: 1.28 µM
LC50 (concentration killing 50% of cells) [5]: > 100 µM
TGI [5]: 10.7 µM
growth at 100 µM [6]: -71%
growth at 0.1 µM [7]: 92%
growth at 1 µM [8]: 97%
GI50 [9]: 2 µM
LC50 [9]: 30 µM
TGI [9]: 6.63 µM
growth at 0.1 µM [10]: 89%
growth at 0.01 µM [11]: 101%
growth at 0.01 µM [12]: 87%
growth at 100 µM [13]: -95%
GI50 [14]: 1.77 µM
LC50 (concentration killing 50% of cells) [14]: 7.83 µM
TGI [14]: 3.72 µM
growth at 1 µM [15]: 85%
growth at 100 µM [16]: -91%
growth at 1 µM [17]: 66%
growth at 1 µM [18]: 82%
growth at 10 µM [19]: -17%
growth at 10 µM [20]: -40%
growth at 1 µM [21]: 11%
growth at 0.1 µM [22]: 97%
growth at 1 µM [23]: 86%
growth at 10 µM [24]: -77%
growth at 1 µM [25]: 65%
growth at 10 µM [26]: -27%
growth at 0.1 µM [27]: 109%
growth at 0.1 µM [28]: 91%
growth at 10 µM [29]: -23%
growth at 100 µM [30]: -63%
growth at 0.1 µM [31]: 93%
growth at 0.01 µM [32]: 101%
growth at 10 µM [33]: -93%
growth at 0.01 µM [34]: 82%
growth at 100 µM [35]: -86%
growth at 0.01 µM [36]: 100%
